# From patent US11767313B2, “Compounds as nuclear transport modulators and uses thereof” (XWPHARMA LTD., priority 2018, dated 2023)
# Where two headings read alike, the source gives them in different places.
# Assays:
# T98G = test: CellTiter-Glo cell proliferation assay, T98G; type: cell-based; details: Table 11, read-out: Absolute IC50 (μM) T98G
# Description: (§1) CellTiter-Glo® Luminescent Cell Viability assay (with Promega CellTiter 96® Luminescent CellTiter-Glo® kit) was used to study the proliferation inhibition by test compounds. Compounds were resuspended in DMSO to make a 25 mM stock suspension. Cells of cancer cell lines or normal tissues were seeded in 96-well plates at 1,500 to 5,000 cells/well overnight. Compounds were 2- or 3-fold diluted serially to obtain 10 concentrations. Then, the drugs were added to the cell wells by Bravo (Agilent) and incubated for 72 hours. The cells were lysed by adding CellTiter-Glo® Reagent (per manufacturer's instructions) and subsequently, the luminescence was read using EnVision® (PerkinElmer).
# (§2) The percent of growth was calculated as follows. DMSO-treated cells were employed as vehicle control (High control, HC) and culture medium alone was employed as background (Low control, EC). % growth=100×(Lum sample−Lum EC)/(Lum HC−Lum EC). The ICso was calculated by concentration-response curve fitting using Graphpad Prism.
# (§3) Hematological cancer cell lines tested included OCI-AML3, MV-4-11, KG-1, Kasumi-1, K562, THP-1; solid cancer cell lines tested included U87MG, U251, T98G, LN229, A172, H460, H2009, A549; normal cell lines tested included HCN2 and 3T3-L1. […] However, they were not toxic to in vitro cultured normal cells.
# LN-229 = test: CellTiter-Glo cell proliferation assay, LN-229; type: cell-based; details: Table 11, read-out: Absolute IC50 (μM) LN-229
# Description: as §1, §2, §3
# U251 = test: CellTiter-Glo cell proliferation assay, U251; type: cell-based; details: Table 11, read-out: Absolute IC50 (μM) U251
# Description: as §1, §2, §3
# U87MG = test: CellTiter-Glo cell proliferation assay, U87MG; type: cell-based, human; details: U87MG, Table 12; for IC50: Homo sapiens, U-87 MG; for Bottom / Hill Slope / Top: curve fit
# Description: as §1, §2, §3
# XPO1 [1] = target: T1, XPO1 (Homo sapiens, UniProt O14980); test: REV-GFP translocation assay in U2OS cells; type: cell-based; set-up: endogenous in cells; host or cells: U2OS cells stably expressing REV-GFP (clones from HD Biosciences); details: for EC50: 1 h
# Description: LTD in China, and cells were cultured with growth medium. […] The highest Leptomycin B (LMB) concentration was set to 50 nM and serially diluted as the positive control, while the highest concentrations of other compounds were set to 10 μM. The cells treated with various drugs or DMSO, were incubated at 37° C. and 5% CO2 for 1 h. Then, cells were fixed with 4% formaldehyde for 15 min at room temperature. The cells were washed and stained with 100 μL Hoechst 33342 working solution for 10 min at room temperature in dark, after which the cell fluorescence was imaged with the High-Content Imaging System, ImageXpress® (Molecular Devices) using the 20× objective. The filters were set for Hoechst (350/461 nm) and GFP/FITC (488/509 nm) (wavelength for excitation and emission maxima). The % effect of REV nuclear translocation was calculated with the following formula: % effect=([…]- signals from testing compounds; ILMB-signals of 50 nM LMB group; ICTRL-signals of vehicle control group.
# XPO1 [2] = target: T1, XPO1; test: Compound washout assay in REV-GFP cells
# Description: In order to evaluate the duration of XPO1 inhibition by test compounds on XPO1 protein after washout, washout assay was performed using REV-GFP cells. The test compounds and positive control were added to the cell well, and the plate was incubated the at 37° C. and 5% CO2 for 1 h. The drug-containing media were removed, the cells were washed, and the fresh media were added. The cells were imagined at the specified time points 0, 4, 24, 48, 72, and 96 hours to evaluate the inhibition of REV nuclear export. […] 4A. […] 4B. […] 4C.
# T1 sequence (O14980 whole entry): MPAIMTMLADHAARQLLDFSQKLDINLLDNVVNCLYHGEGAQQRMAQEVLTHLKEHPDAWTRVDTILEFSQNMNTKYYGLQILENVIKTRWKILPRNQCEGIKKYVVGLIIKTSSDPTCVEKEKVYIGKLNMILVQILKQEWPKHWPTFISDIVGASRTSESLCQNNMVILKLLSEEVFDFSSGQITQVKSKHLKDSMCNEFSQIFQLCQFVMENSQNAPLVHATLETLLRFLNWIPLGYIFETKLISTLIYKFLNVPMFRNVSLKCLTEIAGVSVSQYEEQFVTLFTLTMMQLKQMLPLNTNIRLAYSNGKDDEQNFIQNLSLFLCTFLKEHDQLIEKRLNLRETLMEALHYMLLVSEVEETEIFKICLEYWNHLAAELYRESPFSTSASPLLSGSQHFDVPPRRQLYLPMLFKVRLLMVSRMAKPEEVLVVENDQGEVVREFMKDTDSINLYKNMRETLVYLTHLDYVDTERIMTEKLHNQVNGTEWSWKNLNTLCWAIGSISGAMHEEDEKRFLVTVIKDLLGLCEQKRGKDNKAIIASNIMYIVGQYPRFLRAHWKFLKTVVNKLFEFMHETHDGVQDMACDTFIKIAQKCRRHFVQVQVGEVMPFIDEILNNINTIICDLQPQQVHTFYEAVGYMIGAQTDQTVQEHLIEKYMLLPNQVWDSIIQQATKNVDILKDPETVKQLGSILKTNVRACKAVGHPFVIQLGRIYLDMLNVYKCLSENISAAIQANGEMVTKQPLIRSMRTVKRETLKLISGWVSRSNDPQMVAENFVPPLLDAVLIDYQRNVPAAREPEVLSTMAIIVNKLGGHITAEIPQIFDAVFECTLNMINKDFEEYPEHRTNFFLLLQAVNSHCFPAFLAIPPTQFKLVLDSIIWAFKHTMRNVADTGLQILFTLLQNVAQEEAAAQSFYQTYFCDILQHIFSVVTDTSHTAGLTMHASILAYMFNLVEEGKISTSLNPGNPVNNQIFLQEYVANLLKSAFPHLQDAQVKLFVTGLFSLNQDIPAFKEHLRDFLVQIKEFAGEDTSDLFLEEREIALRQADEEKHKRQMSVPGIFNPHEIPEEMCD
SMILES,IC50 (U87MG; read-out: Relative IC50) [nM],Max % Inhibition (U87MG) [%],Bottom (U87MG),Hill Slope (U87MG),Top (U87MG),IC50 (U87MG; read-out: Absolute IC50) [nM],other results
"N.N.[Cl][Pt][Cl] [Cisplatin, reference compound]",,,,,,,IC50 (T98G): 12.3 µM; IC50 (LN-229): 13 µM; IC50 (U251): 6 µM
"CCCC(=O)NNC(=O)/C=C\n1cnc(-c2cc(C(F)(F)F)cc(S(F)(F)(F)(F)F)c2)n1 [Compound IX, (Z)—N′-(3-(3-(3-(Pentafluorosulfaneyl)-5-(trifluoromethyl)phenyl)-1H-1,2,4-triazol-1-yl)acryloyl)butyrohydrazide]",100,48.3,−4.6,1.6,43.6,,
"O=C(/C=C\n1cnc(-c2cc(C(F)(F)F)cc(S(F)(F)(F)(F)F)c2)n1)NNc1nccs1 [Compound VI, (Z)-3-(3-(3-(Pentafluorosulfaneyl)-5-(trifluoromethyl)phenyl)-1H-1,2,4-triazol-1-yl)-N′-(thiazol-2-yl)acrylohydrazide]",,,,,,,"IC50 (T98G; Homo sapiens, T98G): 2.6 µM; IC50 (LN-229; Homo sapiens, LN-229): 1.7 µM; IC50 (U251; Homo sapiens, U-251): 3.8 µM; EC50 (XPO1 [1]; REV-EGFP U2OS cells, Table 2, read-out: Rev-GFP/EC50): 25.2 nM; IC50 (XPO1 [1]; Table 10, first (or only) value of the cell): 25.2 nM"
"O=C(/C=C\n1cnc(-c2cc(C(F)(F)F)cc(S(F)(F)(F)(F)F)c2)n1)NNC(=O)C1CC1 [Compound VII, (Z)—N′-(3-(3-(3-(Pentafluorosulfaneyl)-5-(trifluoromethyl)phenyl)-1H-1,2,4-triazol-1-yl)acryloyl)cyclopropanecarbohydrazide]",100,49.0,−6.4,1.2,45.9,,
"CC(C)C(=O)NNC(=O)/C=C\n1cnc(-c2cc(C(F)(F)F)cc(S(F)(F)(F)(F)F)c2)n1 [Compound VIII, (Z)—N′-Isobutyryl-3-(3-(3-(pentafluorosulfaneyl)-5-(trifluoromethyl)phenyl)-1H-1,2,4-triazol-1-yl)acrylohydrazide]",100,44.0,−10.6,1.8,38.8,,
"O=C(/C=C\n1cnc(-c2cc(C(F)(F)F)cc(S(F)(F)(F)(F)F)c2)n1)NNC(=O)C1CCC1 [Compound X, (Z)—N′-(3-(3-(3-(Pentafluorosulfaneyl)-5-(trifluoromethyl)phenyl)-1H-1,2,4-triazol-1-yl)acryloyl)cyclobutanecarbohydrazide]",200,58.3,−15.9,0.5,59.4,9400,
"CC1(C(=O)NNC(=O)/C=C\n2cnc(-c3cc(C(F)(F)F)cc(S(F)(F)(F)(F)F)c3)n2)CC1 [Compound XI, (Z)-1-Methyl-N′-(3-(3-(3-(pentafluorosulfaneyl)-5-(trifluoromethyl)phenyl)-1H-1,2,4-triazol-1-yl)acryloyl)cyclopropane-1-carbohydrazide]",200,48.5,−7.6,1.8,44.6,,
"CC(CO)(CCl)C(=O)NNC(=O)/C=C\n1cnc(-c2cc(C(F)(F)F)cc(S(F)(F)(F)(F)F)c2)n1 (centres unmarked) [Compound XII, (Z)—N′-(3-Chloro-2-(hydroxymethyl)-2-methylpropanoyl)-3-(3-(3-(pentafluorosulfaneyl)-5-(trifluoromethyl)phenyl)-1H-1,2,4-triazol-1-yl)acrylohydrazide]",600,53.9,−5.5,1.2,50.9,18500,
"CC(C)(C)C(=O)NNC(=O)/C=C\n1cnc(-c2cc(C(F)(F)F)cc(C(F)(F)F)c2)n1 [KPT-350, (Z)-3-(3-(3,5-bis(trifluoromethyl)phenyl)-1H-1,2,4-triazol-1-yl)-N′-pivaloylacrylohydrazide, reference compound]",300,49.4,−13.2,0.8,53.0,10000,
"CCC(=C/[C@H](C)C/C=C/C(C)=C/[C@@H](C)C(=O)[C@@H](C)[C@H](O)[C@@H](C)C/C(C)=C/C(=O)O)/C=C/[C@@H]1OC(=O)C=C[C@@H]1C [LMB, Leptomycin B, reference compound]",,,,,,,"sustained retention of REV protein in the nucleus post washout (XPO1 [2]; 50 nM, 1 h treatment then washout): up to 24 hours; effect on retention of REV protein in the nucleus (XPO1 [2]; 50 nM, 72 hours post washout): 30%; toxicity / cell number compared to the control (XPO1 [2]; washout assay): showed toxicity; EC50 (XPO1 [1]; Rev-GFP-U2OS cells, FIG. 1B, read-out: EC50 in the Rev redistribution): 0.11 nM"
